Measurements published in patent US11136291B2, “Antifungal compounds and uses thereof” (Dana-Farber Cancer Institute, Inc., priority 2016, dated 2021).
In brackets after ≈: the same amount, converted by molar mass. Entries after “also recorded” stand apart in the source; their conditions may differ.

Key:
[1] = test system: Saccharomyces cerevisiae DSY2094; assay: Broth dilution MIC
Description: (§1) Antifungal susceptibility testing was carried out using broth dilution assays which examined effects of two-fold dilutions of compounds on cellular growth. The minimum inhibitory concentration (MIC) was defined as the drug concentration at which the optical density was equal to or decreased more than 50% from that of the drug-free culture.

[2] = test system: CgCDR1 transcription (CgPdr1 target); assay: Transcription assay, quantitative real-time PCR of CgPdr1 target genes; format: cell-based, Candida glabrata
[3] = test system: rhodamine 6G efflux in C. glabrata; assay: Rhodamine 6G efflux assay; format: cell-based, Candida glabrata; conditions: PDR1 wild-type or gain-of-function strains, iKIX1 pre-treatment vs vehicle
Description: Cells were treated with vehicle or iKIX1 and grown with shaking for 16 hours. […] Untreated cells were placed on ice and not treated with ketoconazole or rhodamine 6G. All cells were placed on ice and washed twice with cold YP containing either 5 μM ketoconazole+vehicle (DMSO) or 5 μM ketoconazole+30 μM iKIX1 to remove excess rhodamine 6G. Cells were resuspended in room temperature YP with either 5 μM ketoconazole+vehicle (DMSO) or 5 μM ketoconazole+30 μM iKIX1 and 100 μL was transferred to a 96-well plate. An Envision 2103 Multilabel plate reader was used to assess RFU (relative fluorescence units; excitation 485, emission 535) over 60 minutes at 7.5 minute intervals. Efflux rate was calculated as RFU per second with 7.5 minute windows. Experiments were performed in triplicate, with duplicate readings for each sample; error bars indicate s.d.

Candida albicans DSY2621 = assay: Broth dilution MIC
Description: as §1

Candida glabrata DSY565 = assay: Broth dilution MIC; conditions: Nakaseomyces glabratus
Description: as §1

[4] = test system: C. glabrata PDR1 wild-type or PDR1^L280F strains; assay: Galleria mellonella survival assay; format: in vivo
Candida glabrata DSY562 = assay: Broth dilution MIC; conditions: Nakaseomyces glabratus
Description: as §1

HepG2 cells = assay: HepG2 cell viability (CellTiter-Glo); format: cell-based, Human; conditions: 72 hours
Description: HepG2 (ATCC HB-8065) cell viability was assessed using the CellTiter-Glo assay kit (Promega). HepG2 cells (N=4,500) were seeded in each well in 100 μL MEM+10% FBS in 96-well CellBIND (Corning) plates. After 24 hours, iKIX1 was added to final concentrations indicated for a final volume of 150 μL. HepG2 cells were incubated with iKIX1 for another 72 hours before CellTiter-Glo signal was assessed with an Envision 2103 Multilabel plate reader according to the manufacturer's instructions.

[5] = In vitro stability (plasma, microsomes) and in vivo mouse pharmacokinetics
Description: Microsome stability assays were performed as previously described (see, e.g., Choi J Y, Calvet C M, Gunatilleke S S, Ruiz C, Cameron M D, McKerrow J H, et al. Rational development of 4-aminopyridyl-based inhibitors targeting Trypanosoma cruzi CYP51 as anti-chagas agents. J Med Chem. 56(19):7651-68. PMCID: 3864028); for plasma stability, 100% freshly drawn plasma in LiHeparin was used with similar sampling and sample preparation with no addition of microsomes, buffer or NADPH.
Male Swiss albino mice were dosed via tail vein (IV; intravenous, solution in 5% NMP and 10% solutol in saline, dose: 2 mg/kg) or via oral gavage (PO; suspensions in 0.5% w/v Na CMC with 0.1% v/v Tween-80 in water). Blood and brain samples were collected at 0, 0.083 (for IV only), 0.25, 0.5, 1, 2, 4, 6 (for PO only), 8, 12, and 24 hours for the IV and PO groups. The blood samples were collected from sets of three mice at each time point. Plasma samples were separated by centrifugation and stored below −70° C. until analysis. Brain samples were homogenized using ice-cold phosphate buffer saline (pH 7.4) and homogenates were stored below −70° C. until analysis. All samples were processed and analyzed by […] (LLOQ, 2.03 ng/mL for plasma and 10.16 ng/mL for brain). Pharmacokinetic parameters were calculated using the noncompartmental analysis tool of Phoenix WinNonlin (version 5.3).

[6] = test system: Gal11/Med15 recruitment to Pdr1-regulated target genes; assay: Chromatin immunoprecipitation (ChIP) assay; format: cell-based, Saccharomyces cerevisiae
Description: ChIP was performed according to standard procedures (see. e.g., McConnell A D, Gelbart M E, Tsukiyama T. Histone fold protein Dls1p is required for Isw2-dependent chromatin remodeling in vivo. Mol Cell Biol. 2004; 24(7):2605-13. PMCID: 371119). Briefly, cells were grown to saturation then washed 2 times with sterilized Milli-Q (Millipore) water, resuspended to an OD600 of 0.8 in YP (1% yeast extract, 2% bacto peptone) and then grown for 6 hours at 30° C. with shaking in the presence of DMSO (vehicle) or iKIX1. Cultures were induced with ketoconazole to a final concentration of 40 μM and harvested at the times indicated. 2 mL of culture was harvested at 0′ and 15′ for matched transcription samples; RNA was prepared as described below. Cells were fixed with 1% formaldehyde (final) for 15 minutes with swirling and then quenched with 125 mM glycine (final) for 5 min. with swirling. Cells were pelleted, washed with TBS+125 mM glycine and then TBS. Cells were lysed in buffer containing 50 mM HEPES, pH 7.5, 140 mM NaCl, 1% Triton X-100, 0.1% sodium deoxycholate, 1 mM EDTA and protease inhibitors and 0.5 mm glass beads. Glass beads were removed by centrifugation before cell lysate was sonicated to obtain 150 to 400 base pair fragments. […]

C. glabrata = assay: Mouse disseminated fungal burden model; format: in vivo; conditions: for fungal burden (CFU/g kidney): Cgpdr1 null strain (SFY93)
[7] = test system: C. glabrata CgPDR1 wild-type and gain-of-function mutant strains; assay: Spot plating on gradient plates with azole; format: cell-based, Candida glabrata

Structure (SMILES): N#CCC(=O)NNC(=S)Nc1ccc(Cl)c(Cl)c1 [iKIX1, 2-(2-Cyanoacetyl)-N-(3,4-dichlorophenyl)hydrazinecarbothioamide]
- MIC [1]: 12.5 µM (≈ 3.79 µg/mL)
- ketoconazole-induced CgPdr1 target gene (CgCDR1) transcription (in words) ([2]; CgPDR1 wild-type strain (SFY114), pre-treatment then 40 μM ketoconazole): reduced target gene induction in a durable and concentration-dependent manner
- Pdr1-target gene induction ([2]; iKIX1 alone, no azole): did not significantly affect Pdr1-target gene induction
- azole-induced transcription of CgPdr1 target genes ([2]; isogenic strains with gain-of-function CgPDR1 mutations): reduced azole-induced transcription of CgPdr1 target genes (e.g., CgCDR1) in a concentration-dependent manner in all strains tested
- maximum rhodamine 6G efflux rates [3]: Maximum efflux rates were significantly decreased
- MIC (Candida albicans DSY2621): 12.5 µM (≈ 3.79 µg/mL)
- MIC (Candida glabrata DSY565): 12.5 µM (≈ 3.79 µg/mL)
- survival of G. mellonella larvae ([4]; […], fluconazole-iKIX1 combination): no significant alterations in survival
- survival of G. mellonella larvae ([4]; […], single agent (fluconazole 50 mg/kg or iKIX1 25 mg/kg) vs vehicle): did not significantly increase survival
- survival of G. mellonella larvae ([4]; in vivo): significantly increased survival
- MIC (Candida glabrata DSY562): 12.5 µM (≈ 3.79 µg/mL)
- concentrations that inhibit viability of HepG2 cells (HepG2 cells): > 50 µM
- IC50 (HepG2 cells; Homo sapiens, HepG2, read-out: IC50, toxicity in HepG2 cells): ~100 µM
- in vitro stability and in vivo mouse pharmacokinetics (in words) [5]: favorable drug-like properties and in vivo exposure
- constitutive occupancy of Pdr1 at Pdr1-regulated target genes ([6]; 20 μM iKIX1): did not impede the constitutive occupancy of Pdr1
- ketoconazole-induced recruitment of Gal11/Med15 to promoters of PDR5 and SNQ2 ([6]; iKIX1 pre-treatment): ketoconazole-induced recruitment of Gal11/Med15 was abrogated
- reductions in fungal burdens in the kidney and spleen (C. glabrata; CgPDR1^L280F strain, iKIX1 100 mg/kg with 100 mg/kg fluconazole, i.p. once daily, 7 days, P<0.0001): ~10 fold
- fungal burden (CFU/g kidney) (C. glabrata; iKIX1 alone, 100 mg/kg/day): significantly reduces fungal burden; also recorded: more sensitive to iKIX1 alone
- fungal burden (CFU/g kidney) (C. glabrata; low iKIX1 (10 mg/kg/day) added to fluconazole, 10 mg/kg/day): did not confer additional reductions in CFU/g kidney; also recorded: did not further reduce fungal burden
- tissue fungal burden in the kidney and spleen (C. glabrata; […], iKIX1 100 mg/kg co-treatment with 100 mg/kg fluconazole): did not result in further reductions
- fungal tissue burdens in the spleen or kidney (C. glabrata; […], iKIX1 combination with fluconazole): reduces fungal tissue burdens in the spleen or kidney
- reductions in fungal burdens in both organs (kidney, spleen) (C. glabrata; mouse, in vivo, 25 mg/kg): ~10 fold
- azole sensitivity of growth on gradient plates ([7]; CgPDR1 gain-of-function mutant strains, compound gradient with fluconazole or ketoconazole): restored azole-sensitivity to PDR1 gain-of-function mutant strains in a concentration-dependent manner
- growth inhibition on gradient plates ([7]; CgPDR1 wild-type strains, iKIX1 with azole vs single agents): increased growth inhibition
